In PubChem BioAssay AID2060609 (Molecular Pharmacology Branch, DTP, NCI, 2025):
pIC50: −log10 of the molar value.

Test system: 855422-203-R-J1-PDC complex spheroids, viability
Assay: Anticancer human tumor 855422-203-R-J1-PDC patient-derived bladder carcinoma cell line growth inhibition [CLK]
Details: for pIC50: curve of first compound; for viability, T/C: stronger effect = lower value; active means viability on the fitted dose curve at most 10% of control; inactive means the rest
How it was run: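 Patient-derived tumor cells grown as complex spheroids with HUVEC endothelial cells and mesenchymal stem cells, treated with drug combinations. Concentrations descend in half-log steps from near clinical Cmax, or from 10 microM if Cmax unknown.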

[1] = second compound 0.0316 µM, first compound 0.0316 µM
[2] = second compound 0.0316 µM, first compound 0.1 µM
[3] = second compound 0.0316 µM, first compound 0.316 µM
[4] = second compound 0.0316 µM, first compound 1 µM
[5] = second compound 0.0316 µM, first compound 3.16 µM
[6] = second compound 0.0316 µM, first compound 10 µM
[7] = second compound 0.1 µM, first compound 0.0316 µM
[8] = second compound 0.1 µM, first compound 0.1 µM
[9] = second compound 0.1 µM, first compound 0.316 µM
[10] = second compound 0.1 µM, first compound 1 µM
[11] = second compound 0.1 µM, first compound 3.16 µM
[12] = second compound 0.1 µM, first compound 10 µM
[13] = second compound 0.316 µM, first compound 0.0316 µM
[14] = second compound 0.316 µM, first compound 0.1 µM
[15] = second compound 0.316 µM, first compound 0.316 µM
[16] = second compound 0.316 µM, first compound 1 µM
[17] = second compound 0.316 µM, first compound 3.16 µM
[18] = second compound 0.316 µM, first compound 10 µM
[19] = second compound 1 µM, first compound 0.0316 µM
[20] = second compound 1 µM, first compound 0.1 µM
[21] = second compound 1 µM, first compound 0.316 µM
[22] = second compound 1 µM, first compound 1 µM
[23] = second compound 1 µM, first compound 3.16 µM
[24] = second compound 1 µM, first compound 10 µM
[25] = second compound 3.16 µM, first compound 0.0316 µM
[26] = second compound 3.16 µM, first compound 0.1 µM
[27] = second compound 3.16 µM, first compound 0.316 µM
[28] = second compound 3.16 µM, first compound 1 µM
[29] = second compound 3.16 µM, first compound 3.16 µM
[30] = second compound 3.16 µM, first compound 10 µM
[31] = second compound 10 µM, first compound 0.0316 µM
[32] = second compound 10 µM, first compound 0.1 µM
[33] = second compound 10 µM, first compound 0.316 µM
[34] = second compound 10 µM, first compound 1 µM
[35] = second compound 10 µM, first compound 3.16 µM
[36] = second compound 10 µM, first compound 10 µM
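Further: spheroids exposed to drugs for seven days before readout.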
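Wherever viability, T/C is given: 100% = DMSO vehicle control wells.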

COc1ccc([C@@H](O)c2cc(-c3ncnc4cc(N5CCOCC5)ccc34)c(F)cc2Cl)nn1 + CN1CCN(c2cc(C(=O)Nc3cc4cc(-c5cnn(C)c5)ccc4cn3)ccn2)CC1
5.27: pIC50 (second compound 0.0316 µM)
inactive: viability, T/C [1] 104% | viability, T/C [2] 118% | viability, T/C [3] 91.3% | viability, T/C [4] 94% | viability, T/C [5] 66% | viability, T/C [6] 29.9% | viability, T/C [7] 84.7% | viability, T/C [8] 96.1% | viability, T/C [9] 89.2% | viability, T/C [10] 86% | viability, T/C [11] 64.6% | viability, T/C [12] 28.7%
active: viability, T/C [13] 6.51% | viability, T/C [14] 8.74% | viability, T/C [15] 5.23% | viability, T/C [16] 4.62% | viability, T/C [17] 5.93% | viability, T/C [18] 5.44% | viability, T/C [19] 0.14% | viability, T/C [20] 0.19% | viability, T/C [21] 0.74% | viability, T/C [22] 0.11% | viability, T/C [23] 2.55% | viability, T/C [24] 0.09% | viability, T/C [25] 1.7% | viability, T/C [26] 0.33% | viability, T/C [27] 1.52% | viability, T/C [28] 0.2% | viability, T/C [29] 0.33% | viability, T/C [30] 0.13% | viability, T/C [31] 0.6% | viability, T/C [32] 0.27% | viability, T/C [33] 0.24% | viability, T/C [34] 0.24% | viability, T/C [35] 0.26% | viability, T/C [36] 0.19%
> 7.50: pIC50 (second compound 0.316 µM) | pIC50 (second compound 1 µM) | pIC50 (second compound 3.16 µM) | pIC50 (second compound 10 µM)
5.30: pIC50 (second compound 0.1 µM)

COc1cccc2c1C(=O)c1c(O)c3c(c(O)c1C2=O)CC(O)(C(=O)CO)CC3OC1CC(N)C(O)C(C)O1 (stereo not given) + CN1CCN(c2cc(C(=O)Nc3cc4cc(-c5cnn(C)c5)ccc4cn3)ccn2)CC1
> 7.50: pIC50 (second compound 0.0316 µM) | pIC50 (second compound 0.1 µM) | pIC50 (second compound 0.316 µM) | pIC50 (second compound 1 µM) | pIC50 (second compound 3.16 µM) | pIC50 (second compound 10 µM)
active: viability, T/C [1] 8.97% | viability, T/C [2] 3.16% | viability, T/C [3] 0.95% | viability, T/C [4] 0.46% | viability, T/C [5] 0.59% | viability, T/C [6] 1.01% | viability, T/C [7] 8.75% | viability, T/C [8] 1.14% | viability, T/C [9] 0.71% | viability, T/C [10] 1.31% | viability, T/C [11] 0.35% | viability, T/C [12] 0.34% | viability, T/C [13] 1.19% | viability, T/C [14] 1.5% | viability, T/C [15] 0.36% | viability, T/C [16] 0.28% | viability, T/C [17] 0.35% | viability, T/C [18] 0.27% | viability, T/C [19] 0.21% | viability, T/C [20] 0.29% | viability, T/C [21] 0.23% | viability, T/C [22] 0.31% | viability, T/C [23] 0.39% | viability, T/C [24] 0.81% | viability, T/C [25] 0.29% | viability, T/C [26] 0.57% | viability, T/C [27] 0.22% | viability, T/C [28] 0.22% | viability, T/C [29] 0.42% | viability, T/C [30] 0.22% | viability, T/C [31] 0.09% | viability, T/C [32] 0.17% | viability, T/C [33] 1.68% | viability, T/C [34] 0.13% | viability, T/C [35] 0.76% | viability, T/C [36] 1.02%

C=CC(=O)N1CCN(c2nc(=O)n(-c3c(C)ccnc3C(C)C)c3nc(-c4c(O)cccc4F)c(F)cc23)C(C)C1 (stereo not given) + CNC(=O)c1ccc(Nc2nc(OC3CCCC3)c3c(-c4ccc5nc(C)oc5c4)c[nH]c3n2)c(OC)c1
inactive: viability, T/C [1] 78.8% | viability, T/C [2] 91.5% | viability, T/C [3] 104% | viability, T/C [4] 103% | viability, T/C [5] 179% | viability, T/C [6] 127% | viability, T/C [7] 47.5% | viability, T/C [8] 50.9% | viability, T/C [9] 45.8% | viability, T/C [10] 41.6% | viability, T/C [11] 43.5% | viability, T/C [12] 23.9% | viability, T/C [13] 21.1% | viability, T/C [14] 19% | viability, T/C [15] 21.8% | viability, T/C [16] 27% | viability, T/C [17] 22.7% | viability, T/C [18] 23.4% | viability, T/C [19] 21.2% | viability, T/C [20] 17.7% | viability, T/C [21] 21% | viability, T/C [22] 22.5% | viability, T/C [23] 21.5% | viability, T/C [24] 19.4% | viability, T/C [25] 16.2% | viability, T/C [26] 18.3% | viability, T/C [27] 18.6% | viability, T/C [28] 18.9% | viability, T/C [29] 17% | viability, T/C [30] 14.1% | viability, T/C [31] 19.4% | viability, T/C [32] 17.1% | viability, T/C [33] 19.5% | viability, T/C [34] 29.2% | viability, T/C [35] 17.6% | viability, T/C [36] 16.7%
> 7.50: pIC50 (second compound 0.1 µM) | pIC50 (second compound 0.316 µM) | pIC50 (second compound 1 µM) | pIC50 (second compound 3.16 µM) | pIC50 (second compound 10 µM)
< 5.00: pIC50 (second compound 0.0316 µM)

CCCS(=O)(=O)Nc1ccc(F)c(C(=O)c2c[nH]c3ncc(-c4ccc(Cl)cc4)cc23)c1F + CNC(=O)c1ccc(Nc2nc(OC3CCCC3)c3c(-c4ccc5nc(C)oc5c4)c[nH]c3n2)c(OC)c1
5.99: pIC50 (second compound 0.1 µM)
5.25: pIC50 (second compound 0.0316 µM)
active: viability, T/C [6] 3.65% | viability, T/C [12] 6.89%
inactive: viability, T/C [1] 90.8% | viability, T/C [2] 79.9% | viability, T/C [3] 112% | viability, T/C [4] 92.2% | viability, T/C [5] 114% | viability, T/C [7] 50.6% | viability, T/C [8] 52.7% | viability, T/C [9] 48.5% | viability, T/C [10] 49.6% | viability, T/C [11] 46% | viability, T/C [13] 23.8% | viability, T/C [14] 23.8% | viability, T/C [15] 19.8% | viability, T/C [16] 19.9% | viability, T/C [17] 21.4% | viability, T/C [18] 5.35% | viability, T/C [19] 17.7% | viability, T/C [20] 20.9% | viability, T/C [21] 17.9% | viability, T/C [22] 20.2% | viability, T/C [23] 16.9% | viability, T/C [24] 4.43% | viability, T/C [25] 22.2% | viability, T/C [26] 14.9% | viability, T/C [27] 18.7% | viability, T/C [28] 15.1% | viability, T/C [29] 19.5% | viability, T/C [30] 4.41% | viability, T/C [31] 18.2% | viability, T/C [32] 19.6% | viability, T/C [33] 20% | viability, T/C [34] 17.6% | viability, T/C [35] 15.1% | viability, T/C [36] 5.26%
> 7.50: pIC50 (second compound 0.316 µM) | pIC50 (second compound 1 µM) | pIC50 (second compound 3.16 µM) | pIC50 (second compound 10 µM)

COC1C=CCC(C)C(C)S(=O)(=O)NC(=O)c2ccc3c(c2)N(CC2CCC21)CC1(CCCc2cc(Cl)ccc21)CO3 (stereo not given) + CNC(=O)c1ccc(Nc2nc(OC3CCCC3)c3c(-c4ccc5nc(C)oc5c4)c[nH]c3n2)c(OC)c1
inactive: viability, T/C [1] 96% | viability, T/C [2] 105% | viability, T/C [3] 122% | viability, T/C [4] 132% | viability, T/C [5] 151% | viability, T/C [6] 24.7% | viability, T/C [7] 53.6% | viability, T/C [8] 63.6% | viability, T/C [9] 54.1% | viability, T/C [10] 77.3% | viability, T/C [11] 105% | viability, T/C [12] 33.3% | viability, T/C [13] 20% | viability, T/C [14] 23.7% | viability, T/C [15] 20.7% | viability, T/C [16] 17.2% | viability, T/C [17] 34.1% | viability, T/C [18] 22% | viability, T/C [19] 19.8% | viability, T/C [20] 17.3% | viability, T/C [21] 18.2% | viability, T/C [22] 19.5% | viability, T/C [23] 21.9% | viability, T/C [24] 29% | viability, T/C [25] 15.8% | viability, T/C [26] 18.1% | viability, T/C [27] 16.4% | viability, T/C [28] 15.1% | viability, T/C [29] 20.8% | viability, T/C [30] 23.3% | viability, T/C [31] 17.7% | viability, T/C [32] 18.6% | viability, T/C [33] 17.9% | viability, T/C [34] 17.4% | viability, T/C [35] 17.9% | viability, T/C [36] 23.3%
5.13: pIC50 (second compound 0.0316 µM)
> 7.50: pIC50 (second compound 0.316 µM) | pIC50 (second compound 1 µM) | pIC50 (second compound 3.16 µM) | pIC50 (second compound 10 µM)
< 5.00: pIC50 (second compound 0.1 µM)
